Consider 14 substances from US6022857A, “Radiolabeled compounds for thrombus imaging” (Diatide, Inc., priority 1998, dated 2000).

Where “and” joins values, the source holds several entries; their conditions need not be identical. Identical values can stand only once. Like-named read-outs stand apart in the source and are kept apart here. Where no end group is shown, it is not given here. The star is where a group is joined. Acm = CC(=O)NC*

Series [1] has as its system human platelets in platelet-rich plasma. Kind of series: Platelet aggregation inhibition assay (ADP-induced, platelet-rich plasma). Type of series: cell-based. The procedure:
Platelet aggregation studies were performed essentially as described by Zucker (1989, Methods in Enzymol. 169: 117-133). Briefly, platelet aggregation was assayed with or without putative platelet aggregation inhibitory compounds using fresh human platelet-rich plasma, comprising 300,000 platelets per microliter. Platelet aggregation was induced by the addition of a solution of adenosine diphosphate to a final concentration of 10 to 15 micromolar, and the extent of platelet aggregation monitored using a Bio/Data aggregometer (Bio/Data Corp., Horsham, Pa.). The concentrations of platelet aggregation inhibitory compounds used were varied from 0.1 to 500 μg/mL. The concentration of inhibitor that reduced the extent of platelet aggregation by 50% (defined as the IC50) was determined from plots of inhibitor concentration versus extent of platelet aggregation. An inhibition curve for peptide RGDS was determined for each batch of platelets tested.
**concentration of reagent that inhibits by 50% the aggregation of human
platelets in plateletrich plasma induced to aggregate by the addition of
adenosine diphosphate (ADP)

Series [2] deals with femoral vein thrombus. Nature of the series: Canine model of DVT: thrombus uptake and imaging of Tc-99m labeled reagent. Type of series: in vivo. The settings on record: approximately 4 h postinjection. The procedure:
*ratio of (% injected dose/g in a femoral vein thrombus)/(% injected
dose/g in blood) at approximately 4 h postinjection of each Tc99 m labele
reagent in a canine model of DVT

For series [3], the system named is femoral vein thrombus. Described as above. The settings on record: in vivo canine model system.
Series [4] concerns deep-vein thrombi. Nature of the series: Pilot human clinical study: scintigraphic imaging of deep-vein thrombi. Type of series: in vivo. Conditions: Tc-99m labeled. How it is done: A series of experiments comprising a pilot human clinical study of one embodiment of the scintigraphic imaging agents of the invention, designated P280, having the chemical structure:
were performed. These experiments were performed on 9 human patients (6 males, 3 females), ages 30 to 60 years and weighing 63 to 100 kg. Each of the patients presented clinically with the symptoms of deep-vein thrombosis, and the diagnosis was confirmed by physical work-up, ultrasonography and/or contrast venography.
Each patient in the study was administered 10-22 mCi Tc-99m labeled P280 comprising approximately 0.25 mg peptide, by intravenous injection. Scintigraphic imaging was then performed over four hours using a large field-of-view gamma camera equipped with a high-resolution collimator (photopeaked at 140 keV, with a 20%±window). Gamma camera imaging was commenced simultaneously with injection. Anterior images followed by posterior images over the legs were acquired over the first hour, then at 2 and 4 hours post-injection.

The mark [5] stands for this setting: human platelet-rich plasma, aggregation induced by ADP, read-out: IC50 (concentration of reagent that inhibits by 50% the aggregation of human platelets).

With “CH2 CO--YD RGDCCAcm GCAcm amide [Peptide P81]”, in series [1] (setting [5]), the IC50 amounted to 25000 nM. Besides, the “Clot/Blood: ratio of (% injected dose/g in a femoral vein thrombus)/(% injected dose/g in blood)” value in series [2] turned out to be 1.8 ± 0.6.

Turning to “(CH2 CO--YD ApcGDCGGCAcm GCAcm GGC-amide)3 -TSEA [Peptide P317]”, in series [1] (setting [5]), the IC50 is 36 nM. Moreover, in series [2], the “Clot/Blood: ratio of (% injected dose/g in a femoral vein thrombus)/(% injected dose/g in blood)” value worked out at 3.8 ± 2.2.

On to “CH2 CO--YD RGDCGGCAcm GCAcm amide [Peptide P143]”, for which the IC50 in series [1] (setting [5]) was 1300 nM. Besides, in series [2], the “Clot/Blood: ratio of (% injected dose/g in a femoral vein thrombus)/(% injected dose/g in blood)” value amounted to 1.4.

For the substance “AcSYGRGDVRGDFKCAcm GCAcm (SEQ ID NO: 6) (Ac-SYGRGDVRGDFKC(Acm)GC(Acm)) [Peptide P47]”, in series [1] (setting [5]), the IC50 was determined as 23000 nM. Besides, the “Clot/Blood: ratio of (% injected dose/g in a femoral vein thrombus)/(% injected dose/g in blood)” value in series [2] is on record as 1.0.

As for “AcSYGRGDVRGDFKCTCCA (SEQ ID NO: 7) (Ac-SYGRGDVRGDFKCTCCA; cysteine pairing not given here) [Peptide P63]”, in series [1] (setting [5]), the IC50 came to 19000 nM. Further, in series [2], the “Clot/Blood: ratio of (% injected dose/g in a femoral vein thrombus)/(% injected dose/g in blood)” value amounted to 1.7.

“CAcm GCAcm RRRRRRRRRGDV (SEQ ID NO: 5) (C(Acm)GC(Acm)RRRRRRRRRGDV) [Peptide P32]”: in series [1] (setting [5]), the IC50 came out at 26000 nM. Also, in series [2], the “Clot/Blood: ratio of (% injected dose/g in a femoral vein thrombus)/(% injected dose/g in blood)” value came to 1.2 ± 0.2.

For “(CH2 COYD.Apc.GDCGGCAcm GCAcm GGCamide)2 (CH2 CO)2 K(Nε-K)GCamide [Peptide P667]”, the IC50 in series [1] (setting [5]) amounted to 81 nM. Further, the “Clot/Blood: ratio of (% injected dose/g in a femoral vein thrombus)/(% injected dose/g in blood)” value in series [2] is 5.9 and 5.0.

For the substance “GRGDVRGDFKCAcm GCAcm amide (SEQ ID NO: 3) (GRGDVRGDFKC(Acm)GC(Acm)-NH2; N-terminus assumed; SMILES CC(=O)NCSC[C@H](NC(=O)CNC(=O)[C@H](CSCNC(C)=O)NC(=O)[C@H](CCCCN)NC(=O)[C@H](Cc1ccccc1)NC(=O)[C@H](CC(=O)O)NC(=O)CNC(=O)[C@H](CCCNC(=N)N)NC(=O)[C@@H](NC(=O)[C@H](CC(=O)O)NC(=O)CNC(=O)[C@H](CCCNC(=N)N)NC(=O)CN)C(C)C)C(N)=O) [Peptide P97]”, in series [1] (setting [5]), the IC50 was 8000 nM. In addition, the “Clot/Blood: ratio of (% injected dose/g in a femoral vein thrombus)/(% injected dose/g in blood)” value in series [2] was determined as 1.0.

As for “CH2 CO--YD ApcGDCGGGCAm GCAcm amide [Peptide P154]”, in series [1] (setting [5]), the IC50 came to 300 nM. The “Clot/Blood: ratio of (% injected dose/g in a femoral vein thrombus)/(% injected dose/g in blood)” value in series [2] is 2.0 ± 0.5.

For the substance “(CH2 CO.YD ApcGDCGGCAcm GCAcm GGC.amide)2 -BSME [Peptide P280]”, the “scintigraphic images of venous thrombi” value in series [3] is recorded as “excellent scintigraphic images”. For the same substance, in series [1] (unlabeled reagent, read-out: IC50, platelet aggregation inhibition), the IC50 was determined as 87 nM. In addition, the “patients in whom thrombi were visualized” value in series [4] (9 patients with confirmed DVT) is given as 8 of the 9. Also, the “toxicity or other adverse effects” value in series [4] (10-22 mCi, approximately 0.25 mg peptide i.v., human patients) was “no toxicity or other adverse effects”. For the same substance, in series [4] (human patients with DVT), the “time after injection at which thrombus visualization was evident” value was in the range of 15 to 30 min and the “time post-injection for which thrombus remained visible” value fell in the range of 4 to 24 h. Also, in series [4] (humans in vivo), the “scintigraphic images of deep-vein thrombi” value is on record as “excellent scintigraphic images”. In addition, in series [4] (intravenous, 1 hour post-injection, human patients), the “injected dose remaining in the circulation” value is given as “less than 10%”. The “injected dose cleared by the kidneys” value in series [4] (intravenous, human patients) is listed as 60-70%.

Turning to “GRDGVRGDFCAcm GCAcm amide(SEQ ID NO: 8) (GRDGVRGDFC(Acm)GC(Acm)-NH2; N-terminus assumed; SMILES CC(=O)NCSC[C@H](NC(=O)CNC(=O)[C@H](CSCNC(C)=O)NC(=O)[C@H](Cc1ccccc1)NC(=O)[C@H](CC(=O)O)NC(=O)CNC(=O)[C@H](CCCNC(=N)N)NC(=O)[C@@H](NC(=O)CNC(=O)[C@H](CC(=O)O)NC(=O)[C@H](CCCNC(=N)N)NC(=O)CN)C(C)C)C(N)=O) [Peptide P98]”, the IC50 in series [1] (setting [5]) came to 15000 nM. In addition, the “Clot/Blood: ratio of (% injected dose/g in a femoral vein thrombus)/(% injected dose/g in blood)” value in series [2] is reported as 1.7.

For the substance “(CH2 CO--YD ApcGDCGGCAcm GCAcm GGC-amide)2 -(BAT-BS) [Peptide P357]”, the IC50 in series [1] (setting [5]) amounted to 79 nM. In series [2], the “Clot/Blood: ratio of (% injected dose/g in a femoral vein thrombus)/(% injected dose/g in blood)” value is listed as 6.3 ± 3.4.

As for “CH2 CO--YD ApcGDCGGCAcm GCAcm GGC-amide [Peptide P246]”, in series [1] (setting [5]), the IC50 stood at 850 nM. Besides, the “Clot/Blood: ratio of (% injected dose/g in a femoral vein thrombus)/(% injected dose/g in blood)” value in series [2] was 4.4 ± 1.8.

In the case of “(CH2 CO--YD ApcGDCKGCAcm GCAcm GGC-amide)2 -BSME [Peptide P381]”, the IC50 in series [1] (setting [5]) worked out at 35 nM. The “Clot/Blood: ratio of (% injected dose/g in a femoral vein thrombus)/(% injected dose/g in blood)” value in series [2] is reported as 2.5.
